“And” between values parts separate entries of the source, which are not always exact repeats. Equal entries are not always repeated.
Legend:
Format in all cases: cell-based
[1] = tested on: Escherichia coli (E. coli ATCC #10536); test: Example 2: high resolution MBC synergy assay in phosphate buffer containing 35% dipropylene glycol, 15 seconds; conditions: for ΣFBC: calculated for the Ca/Cb pair, 1.00 for a component alone; for MBC of component alone (MBCA thymol, MBCB acyclic terpene alcohol): complete kill in 15 seconds, phosphate buffer with 35% DPG, about 1×10^8 bacteria per mL
Description: In this Example, a wide range of combinations of chemicals was tested by conducting high resolution MBC assays of selected acyclic terpene alcohols in the presence of various concentrations of thymol. The materials were sourced in the same way as for Example 1. Synergy tests were conducted using standard microtiter plate assays with phosphate buffer containing 35% dipropylene glycol (DPG). […] The MBC plate was inoculated one column at a time with the test microorganism. An aliquot of the inoculated well was transferred at 15 seconds to a plate containing a neutralizing agent (DIE Neutralizing Broth), mixed and held for 5 minutes before being transferred to a growth plate containing trypticase soy broth (TSB). The TSB plate was incubated at 37° C. and read for the presence/absence of growth at 24 hours. […] This microorganism is representative of natural contaminants in many consumer and industrial applications. […] The tables show the specific combinations of two components: results against the microorganism tested: the end-point activity in weight % measured by the MBC for the first component alone (thymol, MBCA), for the second component alone (acyclic terpene alcohol, MBCB), for the first component in the mixture (Ca) and for the second component in the mixture (Cb); the calculated ΣFBC value; and the range of synergistic ratios for each combination tested (first component t second component or A/B) against the particular microorganism.

[2] = tested on: Escherichia coli (10536 strain); test: Example 1: 15 second contact-time bacterial kill assay (microtitre plate, D/E quench, TSA plate count); MBC and FBC analysis; conditions: lowest concentration of the single active giving zero bacterial survival after 15 seconds; upper boundary
Description: The efficacies of antimicrobial agents can be usefully compared by determining the Minimum Biocidal Concentration (MBC). The MBC is defined as the lowest absolute concentration of the particular active that provides complete kill (zero bacterial growth).
1 ml of this overnight E. coli culture was transferred to 50 ml of fresh TSB broth and incubated at 37° C. at 150 rpm for ca. 4 hours. This culture was separated into equal volumes and centrifuged at 4000 rpm for 15 minutes, washed with sterile saline (0.85% NaCl), centrifuged once more and re-suspended in saline to give a final concentration of 0.8 OD620 equivalent to about 10^8 cells per millilitre for this particular organism. Here, OD620 indicates the absorbance of a sample in a cuvette of 1.0 cm path length at a wavelength of 620 nm. This bacterial stock was used for assaying against antimicrobial actives (in triplicate).
The following assay describes the testing of 8 materials using 6 dilutions across half of a 96-well micro titre plate (MTP). Using this approach it is possible to assay 16 actives (without replicates) with one full dilution plate, replicating this set up in two halves of the plate columns, 1-6 and 7-12.
This MTP was labelled as the “Screening plate”.
In another MTP, labelled as the “Dilution plate”, 270 μl of D/E neutralising solution from DIFCO Composition was added to column 1. The composition of the neutralising solution was as follows: pancreatic digest of casein, 5.0 g/L; Yeast Extract, 2.5 g/L; Dextrose, 10 g/L, sodium thioglycollate, 1.0 g/L, sodium thiosulphate, 6.0 g/L; sodium bisulphite, 2.5 g/L; Polysorbate 80, 5.0 g/L; lecithin 7.0 g/L; bromocresol purple, 0.02 g/L with a pH in the range 7.6±0.2.
270 μl of tryptone diluent solution was added to all the remaining wells of the Dilution MTP (columns 2-6).
After exactly 5 minutes in the D/E neutralising solution, 30 μl volumes were transferred from column 1 to column 2 of the Dilution MTP and mixed, before transferring further 30 μl volumes from column 2 into column 3. […]

[3] = tested on: Escherichia coli (E. coli—ATCC #10536); test: Example 3: automated assessment of efficacy in surfactant base (2.85% sodium cocoyl glycinate + 1.85% sodium lauroamphoacetate, pH 10), 15 seconds exposure, DeltaOD read-out; conditions: for MBC: in 2.85% sodium cocoyl glycinate + 1.85% sodium lauroamphoacetate solution at pH 10, 15 seconds; for 15 second bactericidal efficacy in combination with thymol (in words): in combination with thymol at concentrations lower than their MBC in the same surfactant formulation
Description: In these examples, the efficacy of combinations of thymol and acyclic terpene alcohols were tested in a surfactant cleansing formulation comprising 2.85% sodium cocoyl glycinate and 1.85% sodium lauroamphoacetate. […] Solutions were prepared such that the concentrations of the surfactant components and test actives were 1.1 times the final desired concentration in order to allow for dilution with the bacterial inoculum in the test. […] Solutions of the thymol and/or acyclic terpene alcohols were prepared at a maximum of 24 hours before testing. […] Tests were conducted using standard microtiter plate assays using an automated liquid handling system. 270 μl of the surfactant test solution was pipetted into each well of the microtitre plate (Nunc F Gamma irradiated 96F untreated microtitre plates of clear polystyrene) and 30 μl of the bacterial suspension was then added. After exactly 15 seconds of bacterial exposure, a 30 μl volume of bacterial cells was withdrawn and transferred to 270 μl of D/E quench solution. […] These provide a dual check of antimicrobial activity, as the OD450 reading is specific for the yellow colour of DIE quench when bacterial growth is observed, whereas OD590 is specific for the initial purple colour of the D/E quench which is retained if no bacterial growth is observed. […] Bacterial growth is observed as an increase in OD450 and a decrease in OD590. […] Four replicate measurements in the same plate have been made for each test system. The number of replicate wells showing either bacterial growth or no growth is also readily assessed by eye by following the colour change. Thymol and terpineol were tested both alone and in combination for comparison purposes.

Row | Compound | ΣFBC [1] | MBC of component alone (MBCA thymol, MBCB acyclic terpene alcohol) [1] | MBC (minimum biocidal concentration) [2] [% w/v] | MBC [3] | 15 second bactericidal efficacy in combination with thymol (in words) [3]
1 | CC(C)=CCC/C(C)=C\CO [nerol, (Z)-3,7-dimethylocta-2,6-dien-1-ol] | 1.00 | 0.5 weight % | – | – | –
2 | C=C[C@@](C)(O)CCC=C(C)C [(−)-linalool, (S)-3,7-dimethylocta-1,6-dien-3-ol] | – | – | 0.4 | – | –
3 | C=CC(C)(O)CCC=C(C)C (racemic) [(+/−)-linalool, 3,7-dimethylocta-1,6-dien-3-ol] | 1.00 | 0.5 weight % | 0.4 | >0.5 % w/v | complete kill
4 | CC1=CCC(C(C)(C)O)CC1 (stereo not drawn) [alpha-terpineol, reference compound] | – | – | 0.4 | – | –
5 | Cc1ccc(C(C)C)c(O)c1 [thymol, 2-isopropyl-5-methylphenol] | 1.00 | 0.5 weight % and 0.4 weight % | – | 0.2 % w/v | –
6 | CC(C)=CCC/C(C)=C/CO [geraniol, (E)-3,7-dimethylocta-2,6-dien-1-ol] | 1.00 | 0.3 weight % | – | >0.5 % w/v and 0.5 % w/v | complete kill

Reference: US9247737B2, “Method for disinfecting a surface” (Rohm and Haas Company, priority 2011, dated 2016)
